Test results: patent publication US20170027973A1, “MODULARION OF INVARIANT NATURAL KILLER T CELLS IN THE TREATMENT OF SEPSIS” (LONDON HEALTH SCIENCES CENTRE RESEARCH INC., priority 2014, published 2017)

Assays:
[1] = test system: serum IL-4 and IFN-γ; experiment: Serum IL-4 and IFN-γ by ELISA after i.p. glycolipid injection into naïve B6 mice; format: in vivo, mouse; settings: compared to OCH
Protocol: FIG. 10: Effect of glycolipid agonists on cytokine expression in naïve B6 mice, and on iNKT cells in septic B6 mice. (a) Naïve B6 mice were injected i.p. with 4 μg OCH or KRN7000 or C20:2, and bled at 2, 12, and 24 hours post-injection. Serum samples were assayed for IL-4 and IFN-γ by enzyme-linked immunosorbent assay (ELISA). […] Vehicle-treated mice had cytokine levels below limits of detection. (b) B6 mice were given an intraperitoneal injection of fecal slurry (500 μL of a 90 mg/mL solution) to induce IAS and concomitantly treated with 4 μg of vehicle, OCH, or KRN7000. After 24 hours, mice were sacrificed, and cell suspensions from the liver and spleen were stained for the flow cytometric detection of CD1d tetramer+ TCRβ+iNKT cells.
(§1) Lyophilized OCH was generously provided by the National Institutes of Health (NIH) Tetramer Core Facility (Emory University, Atlanta, Ga.). Each vial containing 0.2 mg of OCH was solubilized in a vehicle solution containing 1 mL of sterile distilled water, 0.5% Tween 20, 56 mg of sucrose and 7.5 mg of histidine, and stored as aliquots at 4° C. until use. KRN7000 (α-GalCer, C26:0/C18:0) was purchased from Funakoshi Co. Ltd. (Tokyo, Japan), solubilized at 1 mg/ml in dimethylsulphoxide (DMSO), and stored as aliquots at −20° C. until use (29); the control vehicle was 2% DMSO in phosphate-buffered saline (PBS). C20:2 was synthesized and used as previously published (30, 31). For in vivo experiments, mice were injected intraperitoneally (i.p.) with a single dose of glycolipid (4 μg/dose) (30) within twenty minutes after induction of IAS.
Cytokine concentrations were determined by commercially available specific ELISA assays for IL-4 and IFN-γ (Ready-Set-Go kits, eBioscience). ODs were measured on a Benchmark Microplate Reader (Bio-Rad) at a wavelength of 450 nm for both cytokines.

[2] = test system: B6 mice with intra-abdominal sepsis (IAS); experiment: Murine intra-abdominal sepsis (IAS) model: survival and murine sepsis score (MSS); format: in vivo, mouse; settings: septic B6 mice
Protocol: Stool from the cecum of euthanized naïve B6 mice was expressed through an enterotomy, homogenized, and suspended in 0.9% normal saline (NS) to produce a fecal slurry at a final concentration of 90 mg/mL, for use in experiments on the same day. Mice were injected intraperitoneally with 500 μL fecal slurry or 0.9% normal saline (sham group). The mice were monitored and scored by two independent investigators—one of whom was blinded to the treatment—every 2-3 hours for the first 12 hours, and then every 1-2 hours thereafter. A murine sepsis score (MSS) was assigned to each mouse based on activity, eye movement, response to exogenous stimuli, breathing rate and pattern, and degree of piloerection (Shrum et al. BMC Research Notes 2014, 7:233). The MSS is a reliable and robust scoring system that has excellent inter-rater reliability (intra-class coefficient=0.96), high internal consistency (Cronbach α=0.92), and correlates with levels of certain pro-inflammatory cytokines such as IFN-γ and IL-1β during the experimental timeline (Shrum et al. BMC Research Notes 2014, 7:233). Mice were euthanized at 24 hours, or earlier if they were deemed to be in significant distress based on our scoring model. Euthanasia was carried out as described above. At the time of sacrifice, intra-cardiac blood was drawn into 1.5 mL micro-centrifuge tubes (BD Biosciences) and centrifuged for serum at 1000×g for 30 minutes at 4° C.
as §1

[3] = test system: splenocyte apoptosis; experiment: Histology (H&E) and TUNEL staining of spleen, liver and omentum of septic B6 mice; format: in vivo, mouse; settings: 24 hours
Excerpt: FIG. 6: Histopathology of septic B6 mice treated with glycolipid agonists of iNKT cells. […] Lymphocyte migration to the omentum is also ameliorated in OCH-treated mice compared to vehicle- and KRN7000-treated mice. There were no histopathological differences in the liver. Images are representative of 4 animals per treatment group (size bar, 50 μm). (b) Histopathological scoring of the degree of apoptosis observed within the spleens of sham and septic B6 mice treated with vehicle, KRN7000, or OCH (n=4 animals per treatment group). Apoptosis was defined histologically by the presence of cell clusters with nuclear shrinkage (karyorrhexis), dark eosinophilic cytoplasm, intact plasma membrane, and relative paucity of surrounding inflammatory cells within the splenic follicles on H&E staining. Scores assigned to each animal by a blinded independent pathologist were as follows: 0 for complete absence of apoptosis; 1 for mild presence of apoptosis (0-15% per follicle); 2 for moderate apoptosis (16-30% per follicle); and 3 for severe apoptosis (31-45% per follicle). ***p<0.0001 by two-tailed Mann Whitney U test.
Liver, spleen, and omentum from sham B6 mice, and vehicle-, OCH-, and KRN7000-treated septic B6 mice were fixed in 10% neutral buffered formalin, embedded in paraffin, sectioned, and stained with H&E or subjected to TUNEL staining using a commercially available kit (Calbiochem). At least four stained sections per spleen from four animals per treatment group were examined and scored for apoptosis by a board-certified veterinary pathologist (Welch) who was blinded to the study design. Apoptosis was defined histologically by the presence of cell clusters with nuclear shrinkage (karyorrhexis), dark eosinophilic cytoplasm, intact plasma membrane, and relative paucity of surrounding inflammatory cells within the splenic follicles on H&E staining (34). Scores assigned to each animal were as follows: 0 for complete absence of apoptosis; 1 for mild presence of apoptosis (0-15% per follicle); 2 for moderate apoptosis (16-30% per follicle); and 3 for severe apoptosis (31-45% per follicle). Photomicrographs were taken using a Nikon DS-Fi1 digital camera using NIS-elements software.

[4] = test system: invariant TCR; settings: C20:2 compared to OCH; cited from earlier work
[5] = C20:2 compared to OCH; cited from earlier work

CCCCC/C=C\C/C=C\CCCCCCCCCC(=O)N[C@@H](CO[C@H]1O[C@H](CO)[C@H](O)[C@H](O)[C@H]1O)[C@H](O)[C@H](O)CCCCCCCCCCCCCC [C20:2]
Th2 response at 24 hours [1]: more pronounced | respiratory status ([2]; observed up to 24 hours): improved respiratory status | course of MSS over time ([2]; up to 24 hours): continued to rise | MSS between 20 and 24 hours ([2]; compared to vehicle-treated mice): significant reduction | apoptosis in histology compared to KRN7000-treated mice [3]: decrease | degree of apoptosis compared to OCH-treated mice [3]: higher | capacity to bind and activate iNKT cells [4]: significantly stronger | half-life [5]: relatively short
